Assay results taken from US8598314B2 (priority 2007, dated 2013).
Read-outs that look alike come from different tables or passages of the source.

Experiments:
[1] = biological target: T1, endogenously expressed GLP-1 receptor, thyroid c-cell carcinoma line 6-23 (Rattus norvegicus, UniProt P32301); test: GLP-1 cyclase whole cell cAMP assay; format: cell-based
T1 construct: the endogenously expressed GLP-1 receptor; endogenous in cells; host or cells: thyroid c-cell carcinoma line 6-23
T1 sequence (P32301 22-463): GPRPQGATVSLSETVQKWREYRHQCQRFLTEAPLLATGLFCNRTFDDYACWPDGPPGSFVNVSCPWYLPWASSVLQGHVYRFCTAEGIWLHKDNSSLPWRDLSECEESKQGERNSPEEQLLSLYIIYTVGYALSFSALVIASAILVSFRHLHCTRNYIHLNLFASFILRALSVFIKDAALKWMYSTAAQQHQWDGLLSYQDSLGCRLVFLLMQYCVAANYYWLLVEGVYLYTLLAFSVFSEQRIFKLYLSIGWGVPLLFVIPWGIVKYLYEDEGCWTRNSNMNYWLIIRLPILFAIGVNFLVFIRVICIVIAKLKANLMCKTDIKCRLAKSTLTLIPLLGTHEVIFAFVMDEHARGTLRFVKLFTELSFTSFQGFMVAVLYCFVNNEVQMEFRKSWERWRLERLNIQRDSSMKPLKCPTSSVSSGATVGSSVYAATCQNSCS
Description: Cells from the thyroid c-cell carcinoma line 6-23 were grown to confluence and harvested by treatment with Versene ([…]). […] Accumulation of cAMP was measured following 30′ conjugate or control agent treatment using an HTRF® cell-based cAMP assay kit (Cisbio-US, Inc., Bedford, Mass.) in 384-well format. The compounds were tested at final concentrations from 1 μM to 10 pM. The cell-conjugate mixture was incubated for 30′ at room temperature, at which time the reaction was terminated by the addition of kit-provided α-cAMP Cryptate solution. Plates were then sealed and stored at room temperature overnight to allow components to come to full equilibrium. cAMP content was then measured by time resolved fluorescence.

[2] = biological target: T2, ACE from rabbit lung (Oryctolagus cuniculus, UniProt P12822); test: ACE inhibition assay; format: biochemical
T2 construct: ACE from rabbit lung; purchased Sigma Chemical Co; host or cells: rabbit lung tissue
T2 sequence (P12822 34-1310): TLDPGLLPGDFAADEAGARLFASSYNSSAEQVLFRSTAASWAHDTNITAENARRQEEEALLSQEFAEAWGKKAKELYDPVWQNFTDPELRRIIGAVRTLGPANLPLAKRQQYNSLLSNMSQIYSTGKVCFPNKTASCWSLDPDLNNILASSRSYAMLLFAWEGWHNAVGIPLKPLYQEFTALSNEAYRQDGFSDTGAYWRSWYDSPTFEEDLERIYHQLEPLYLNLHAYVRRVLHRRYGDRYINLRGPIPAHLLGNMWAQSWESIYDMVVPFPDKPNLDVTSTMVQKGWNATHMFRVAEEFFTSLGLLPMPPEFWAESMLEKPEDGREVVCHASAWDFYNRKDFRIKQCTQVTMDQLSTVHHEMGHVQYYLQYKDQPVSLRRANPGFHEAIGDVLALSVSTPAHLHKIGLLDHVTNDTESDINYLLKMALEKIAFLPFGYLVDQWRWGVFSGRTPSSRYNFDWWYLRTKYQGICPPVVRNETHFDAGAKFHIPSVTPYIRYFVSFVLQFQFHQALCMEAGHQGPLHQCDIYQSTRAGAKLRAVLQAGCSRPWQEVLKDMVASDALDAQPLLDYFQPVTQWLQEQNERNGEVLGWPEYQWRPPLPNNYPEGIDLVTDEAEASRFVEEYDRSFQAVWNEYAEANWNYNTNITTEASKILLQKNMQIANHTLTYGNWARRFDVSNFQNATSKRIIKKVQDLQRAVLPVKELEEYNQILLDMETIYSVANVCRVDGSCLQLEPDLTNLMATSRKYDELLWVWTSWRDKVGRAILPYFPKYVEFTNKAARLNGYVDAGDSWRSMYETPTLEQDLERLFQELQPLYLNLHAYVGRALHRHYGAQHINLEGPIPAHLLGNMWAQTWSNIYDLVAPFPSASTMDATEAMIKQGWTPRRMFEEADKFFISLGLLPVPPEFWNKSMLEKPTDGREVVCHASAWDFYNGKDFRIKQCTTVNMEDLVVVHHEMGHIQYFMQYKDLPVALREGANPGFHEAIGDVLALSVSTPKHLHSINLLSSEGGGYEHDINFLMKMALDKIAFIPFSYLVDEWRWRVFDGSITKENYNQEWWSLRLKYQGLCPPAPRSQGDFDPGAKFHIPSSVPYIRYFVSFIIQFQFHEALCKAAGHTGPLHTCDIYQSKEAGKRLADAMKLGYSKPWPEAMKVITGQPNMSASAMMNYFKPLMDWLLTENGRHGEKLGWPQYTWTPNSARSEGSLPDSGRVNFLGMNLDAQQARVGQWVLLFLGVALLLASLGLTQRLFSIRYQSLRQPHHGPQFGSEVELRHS
Description: Peptide-ACE peptidase inhibitor conjugate compounds were assessed in an ACE inhibition assay using purified ACE enzyme and chromogenic substrates. An ACE stock solution was prepared by dissolving 0.1 unit of enzyme (ACE from rabbit lung, Sigma Chemical Co., St. Louis, Mo.) in 0.640 mL of HEPES buffer (0.1 M, pH=8). A 2 mM stock solution of substrate (N-benzyloxycarbonyl-Phe-His-Leu-OH) dissolved in methanol. The ACE inhibitor compounds were dissolved in phosphate buffer (0.1 M, pH=8) at concentrations of 0.0, 1, 10, 20, 60 and 100 μM. For the inhibition assay, six 2 mL microcentrifuge tubes were prepared containing 1.45 mL of phosphate buffer pH=8, 0.05 mL of 10% NaCl and 0.015 mL of substrate solution. To each microcentrifuge tube was added 0.015 mL of one of the ACE inhibitor compound's stock solutions. The solutions were heated at 37° C. for about 5 minutes. The reaction was started by the addition of 5 μL of the ACE stock solution to each tube mixture (30 seconds in between). The reaction mixtures were incubated at 37° C. After 5 min, 10 min, 30 min and 60 min., aliquots of 100 μL were taken from each tube (each sample was taken in intervals of 30 seconds). Tubes containing the 100 μL sample were floated in a boiling water bath for 5 min. and then cooled. The reaction samples were then treated with 20 μL of 2M NaOH and 20 μL of 0.1% phthaldialdehyde solution. The tubes were shaken for 4 minutes and 10 μL of 6 M HCl were added. […] Initial rates were determined from linear portions of product release curves. Starting substrate concentration in all assays was 20 μM. Apparent binding constants (Kd^app or Ki^app) of inhibitors to ACE were determined by fitting inhibition curves (initial rate vs. inhibitor concentration) to equation:
[formula] where v0 is reaction rate in the absence of inhibitor and [I]-inhibitor concentration. Fits were done by least-squares method using KaleidaGraph 3.6 (Synergy Software, Reading Pa.).

[3] = substrate N-benzyloxycarbonyl-Phe-His-Leu-OH 20 μM, read-out: ACE inhibition IC50

SMILES	EC50 [1]	IC50 [2, 3]	IC50 [2]
CC[C@H](C)[C@H](NC(=O)[C@H](Cc1ccccc1)NC(=O)[C@H](CC(C)C)NC(=O)[C@H](CCCNC(=N)N)NC(=O)[C@@H](NC(=O)[C@H](C)NC(=O)[C@H](CCC(=O)O)NC(=O)[C@H](CCC(=O)O)NC(=O)[C@H](CCC(=O)O)NC(=O)[C@H](CC(C)C)NC(=O)[C@H](CCC(N)=O)NC(=O)[C@H](CCCCN)NC(=O)[C@H](CO)NC(=O)[C@H](CC(C)C)NC(=O)[C@H](CC(=O)O)NC(=O)[C@H](CO)NC(=O)[C@@H](NC(=O)[C@H](Cc1ccccc1)NC(=O)[C@@H](NC(=O)CNC(=O)[C@H](CCC(=O)O)NC(=O)CNC(=O)[C@@H](N)Cc1c[nH]cn1)[C@@H](C)O)[C@@H](C)O)C(C)C)C(=O)N[C@@H](CCC(=O)O)C(=O)N[C@@H](Cc1c[nH]c2ccccc12)C(=O)N[C@@H](CC(C)C)C(=O)N[C@@H](CCCCN)C(=O)N[C@@H](CC(N)=O)C(=O)NCCCC(=O)NCCOCCOCC(=O)NCCCC(=O)NCCCC[C@H](NC(CCc1ccccc1)C(=O)O)C(=O)N1CCC[C@H]1C(=O)O (some centres unmarked) [Compound 5605]	1.24 nM	300 nM	
CC[C@H](C)[C@H](NC(=O)[C@H](Cc1ccccc1)NC(=O)[C@H](CC(C)C)NC(=O)[C@H](CCCNC(=N)N)NC(=O)[C@@H](NC(=O)[C@H](C)NC(=O)[C@H](CCC(=O)O)NC(=O)[C@H](CCC(=O)O)NC(=O)[C@H](CCC(=O)O)NC(=O)[C@H](CC(C)C)NC(=O)[C@H](CCC(N)=O)NC(=O)[C@H](CCCCN)NC(=O)[C@H](CO)NC(=O)[C@H](CC(C)C)NC(=O)[C@H](CC(=O)O)NC(=O)[C@H](CO)NC(=O)[C@@H](NC(=O)[C@H](Cc1ccccc1)NC(=O)[C@@H](NC(=O)CNC(=O)[C@H](CCC(=O)O)NC(=O)CNC(=O)[C@@H](N)Cc1c[nH]cn1)[C@@H](C)O)[C@@H](C)O)C(C)C)C(=O)N[C@@H](CCC(=O)O)C(=O)N[C@@H](Cc1c[nH]c2ccccc12)C(=O)N[C@@H](CC(C)C)C(=O)N[C@@H](CCCCN)C(=O)N[C@@H](CC(N)=O)C(=O)NCCOCCOCCOCC(=O)NCCOCCOCC(=O)NCCCC[C@H](NC(CCc1ccccc1)C(=O)O)C(=O)N1CCC[C@H]1C(=O)O (some centres unmarked) [Compound 5606]	0.23 nM	700 nM	
CC[C@H](C)[C@H](NC(=O)[C@H](Cc1ccccc1)NC(=O)[C@H](CC(C)C)NC(=O)[C@H](CCCNC(=N)N)NC(=O)[C@@H](NC(=O)[C@H](C)NC(=O)[C@H](CCC(=O)O)NC(=O)[C@H](CCC(=O)O)NC(=O)[C@H](CCC(=O)O)NC(=O)[C@H](CC(C)C)NC(=O)[C@H](CCC(N)=O)NC(=O)[C@H](CCCCN)NC(=O)[C@H](CO)NC(=O)[C@H](CC(C)C)NC(=O)[C@H](CC(=O)O)NC(=O)[C@H](CO)NC(=O)[C@@H](NC(=O)[C@H](Cc1ccccc1)NC(=O)[C@@H](NC(=O)CNC(=O)[C@H](CCC(=O)O)NC(=O)CNC(=O)[C@@H](N)Cc1c[nH]cn1)[C@@H](C)O)[C@@H](C)O)C(C)C)C(=O)N[C@@H](CCC(=O)O)C(=O)N[C@@H](Cc1c[nH]c2ccccc12)C(=O)N[C@@H](CC(C)C)C(=O)N[C@@H](CCCCN)C(=O)N[C@@H](CC(N)=O)C(=O)NCCOCCOCCOCC(=O)NCCCC(=O)NCCCC[C@H](NC(CCc1ccccc1)C(=O)O)C(=O)N1CCC[C@H]1C(=O)O (some centres unmarked) [Compound 5609]	0.65 nM	1000 nM	
CC[C@H](C)[C@H](NC(=O)[C@H](Cc1ccccc1)NC(=O)[C@H](CC(C)C)NC(=O)[C@H](CCCNC(=N)N)NC(=O)[C@@H](NC(=O)[C@H](C)NC(=O)[C@H](CCC(=O)O)NC(=O)[C@H](CCC(=O)O)NC(=O)[C@H](CCC(=O)O)NC(=O)[C@H](CC(C)C)NC(=O)[C@H](CCC(N)=O)NC(=O)[C@H](CCCCN)NC(=O)[C@H](CO)NC(=O)[C@H](CC(C)C)NC(=O)[C@H](CC(=O)O)NC(=O)[C@H](CO)NC(=O)[C@@H](NC(=O)[C@H](Cc1ccccc1)NC(=O)[C@@H](NC(=O)CNC(=O)[C@H](CCC(=O)O)NC(=O)CNC(=O)[C@@H](N)Cc1c[nH]cn1)[C@@H](C)O)[C@@H](C)O)C(C)C)C(=O)N[C@@H](CCC(=O)O)C(=O)N[C@@H](Cc1c[nH]c2ccccc12)C(=O)N[C@@H](CC(C)C)C(=O)N[C@@H](CCCCN)C(=O)N[C@@H](CCC(N)=O)C(=O)NCC(=O)NCC(=O)N1CCC[C@H]1C(=O)N[C@@H](CO)C(=O)N[C@@H](CCCCN)C(=O)N[C@@H](CCC(=O)O)C(=O)N[C@H](C(=O)N[C@H](C(=O)N[C@@H](CO)C(=O)NCCCC(=O)NCCC(=O)NCCCC[C@H](NC(CCc1ccccc1)C(=O)O)C(=O)N1CCC[C@H]1C(=O)O)[C@@H](C)CC)[C@@H](C)CC (some centres unmarked) [Compound 5716]	0.14 nM		140 nM
